Assay results from patent US20260042762A1 (Kymera Therapeutics, Inc., priority 2018, published 2026).
Where a name gives a salt, the structure may show the parent alone.

biological target: T1, MerTK (Homo sapiens, UniProt Q12866); test: MerTk degradation in Jurkat cells (Western blot); type: cell-based; details: Jurkat, 4 h, 0.001-1 μM, 4 hour-incubation at 37° C., read-out: Jurkat Max % MerTK Degradation
T1 construct: endogenous in cells; host or cells: Jurkat cells
T1 sequence (Q12866 21-999): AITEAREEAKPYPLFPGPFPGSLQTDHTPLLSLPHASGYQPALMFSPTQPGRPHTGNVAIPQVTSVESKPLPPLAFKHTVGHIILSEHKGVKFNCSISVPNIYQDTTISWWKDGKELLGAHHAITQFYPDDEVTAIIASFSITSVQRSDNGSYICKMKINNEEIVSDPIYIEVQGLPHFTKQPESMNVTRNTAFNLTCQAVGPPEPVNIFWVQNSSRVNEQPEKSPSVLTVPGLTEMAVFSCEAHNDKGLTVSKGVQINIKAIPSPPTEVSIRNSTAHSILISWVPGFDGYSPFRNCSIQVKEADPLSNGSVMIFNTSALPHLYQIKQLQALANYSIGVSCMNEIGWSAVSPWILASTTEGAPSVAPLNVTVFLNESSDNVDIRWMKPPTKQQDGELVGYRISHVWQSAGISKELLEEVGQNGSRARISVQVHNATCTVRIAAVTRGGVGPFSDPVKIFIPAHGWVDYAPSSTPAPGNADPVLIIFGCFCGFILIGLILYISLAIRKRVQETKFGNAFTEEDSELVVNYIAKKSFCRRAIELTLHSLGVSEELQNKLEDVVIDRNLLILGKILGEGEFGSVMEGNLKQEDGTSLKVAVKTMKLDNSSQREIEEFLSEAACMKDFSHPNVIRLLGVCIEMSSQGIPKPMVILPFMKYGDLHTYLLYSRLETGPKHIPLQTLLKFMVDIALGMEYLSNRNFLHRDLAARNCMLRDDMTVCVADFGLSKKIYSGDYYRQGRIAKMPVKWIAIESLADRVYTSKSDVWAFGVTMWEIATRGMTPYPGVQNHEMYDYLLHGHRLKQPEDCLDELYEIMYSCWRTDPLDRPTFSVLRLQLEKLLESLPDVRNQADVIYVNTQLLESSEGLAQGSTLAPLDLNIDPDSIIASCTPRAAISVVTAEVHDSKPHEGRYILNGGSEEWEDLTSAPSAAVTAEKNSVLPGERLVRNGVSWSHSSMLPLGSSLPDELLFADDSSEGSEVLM
Experimental: Compounds were reconstituted in DMSO to make 10 mM stock solutions. […] Cells were seeded into 6-well plates with about 5×10^6 cells per well. 2 μL of diluted compounds were added to cells to the final concentration of 0.001-1 μM. After a 4 hour-incubation at 37° C., cells were collected into 2 mL Eppendorf tubes and centrifuged at 1,000 rpm for 5 min. The cell pellets were washed with DPBS (1×) once and resuspended in 60 μL RIPA lysis buffer with Halt Protease and Phophatase Inhibitor Cocktail. The cells were lysed on ice for 10 min, then centrifuged at 14,000 rpm for 10 min at 4° C. and the supernatants were collected for western blots.
The protein concentration of cell lysates was quantified with Pierce™ BCA Protein Assay Kit. […] BCA working reagents were prepared by mixing BCA reagent A with reagent B in 50: 1 ratio. 200 μL of the BCA working reagents were added to 25 μL of BCA standard or cell lysates in microplate, and mixed thoroughly on a plate shaker for 30 seconds. After incubation at 37° C. for 30 min, the absorbance of samples at 562 nm were measured with EnVision Plate Reader.
Protein lysates were prepared in NuPAGE™ LDS sample buffer and NuPAGE™ sample reducing agent, and incubated at 95° C. for 5 min. […] The proteins were transferred to low fluorescence PVDF membranes using the Trans-Blot Turbo Transfer System. Membranes were then blocked in Odyssey blocking buffer at RT for 1 h followed by primary incubation at 4° C. overnight. The primary antibodies were MerTK rabbit monoclonal antibody and actin mouse monoclonal antibody. Membranes were washed three times with TBST (1×), and then incubated with IR Dye 800 CW Goat anti-rabbit and IR Dye 700 CW Goat anti-mouse secondary antibodies in 1:10,000 dilution at RT for 1 h. The Western blot images were obtained using Odyssey Imaging System.

Dmax [%]	SMILES
> 50	CCCCNc1ncc2c(-c3ccc(CN4CCN(CCOCCOCCOCCCc5ccc6c(c5)n(C)c(=O)n6[C@H]5CCC(=O)NC5=O)CC4)cc3)nn([C@H]3CC[C@H](O)CC3)c2n1 [I-49, 3-(5-[3-[2-(2-[2-[4-([4-[6-(butylamino)-1-[trans-4-hydroxycyclohexy1]-1H-pyrazolo[3,4-d]pyrimidin-3-yl]phenyl]methyl)piperazin-1-yl]ethoxy]ethoxy)ethoxy]propyl]-3-methyl-2-oxo-2,3-dihydro-1H-1,3-benzodiazol-1-y1)piperidine-2,6-dione; formic acid]
> 50	CCCCNc1ncc2c(-c3ccc(CN4CCN(CCOCCOCCCc5ccc6c(c5)n(C)c(=O)n6[C@H]5CCC(=O)NC5=O)CC4)cc3)nn([C@H]3CC[C@H](O)CC3)c2n1 [I-50, 3-[5-[3-(2-[2-[4-([4-[6-(butylamino)-1-[trans-4-hydroxycyclohexyl]-1H-pyrazolo[3,4-d]pyrimidin-3-yl]phenyl]methyl)piperazin-1-yl]ethoxy]ethoxy)propyl]-3-methyl-2-oxo-2,3-dihydro-1H-1,3-benzodiazol-1-y1]piperidine-2,6-dione; formic acid]
> 50	Cn1c(=O)n([C@H]2CCC(=O)NC2=O)c2ccc(CCCOCCCOCCCNCc3ccc(-c4cn([C@H]5CC[C@H](O)CC5)c5nc(NCCC(F)(F)F)ncc45)cc3)cc21 [I-51, 3-(3-methyl-2-oxo-5-[3-[3-(3-[[(4-[7-[trans-4-hydroxycyclohexy1]-2-[(3,3,3-trifluoropropyl)amino]-7H-pyrrolo[2,3-d]pyrimidin-5-yl]phenyl)methyl]amino]propoxy)propoxy]propyl]-2,3-dihydro-1H-1,3-benzodiazol-1-y1)piperidine-2,6-dione hydrochloride]
> 50	Cn1c(=O)n([C@H]2CCC(=O)NC2=O)c2cccc(CCCOCCCOCCCNCc3ccc(-c4cn([C@H]5CC[C@H](O)CC5)c5nc(NCCC(F)(F)F)ncc45)cc3)c21 [I-52, 3-(3-methyl-2-oxo-4-[3-[3-(3-[[(4-[7-[trans-4-hydroxycyclohexyl]-2-[(3,3,3-trifluoropropyl)amino]-7H-pyrrolo[2,3-d]pyrimidin-5-yl]phenyl)methyl]amino]propoxy)propoxy]propyl]-2,3-dihydro-1H-1,3-benzodiazol-1-y1)piperidine-2,6-dione hydrochloride]
20 to 50	CCCCNc1ncc2c(-c3ccc(CNCCOCCCc4ccc5c(c4)n(C)c(=O)n5[C@H]4CCC(=O)NC4=O)cc3)cn([C@H]3CC[C@H](O)CC3)c2n1 [I-54, 3-[5-(3-[2-[([4-[2-(butylamino)-7-[trans-4-hydroxycyclohexyl]-7H-pyrrolo[2,3-d]pyrimidin-5-yl]phenyl]methyl)amino]ethoxy]propyl)-3-methyl-2-oxo-2,3-dihydro-1H-1,3-benzodiazol-1-yl]piperidine-2,6-dione]
> 50	Cn1c(=O)n([C@H]2CCC(=O)NC2=O)c2ccc(CCCOCCOCCOCCN3CCN(Cc4ccc(-c5cn([C@H]6CC[C@H](O)CC6)c6nc(NCCC(F)(F)F)ncc56)cc4)CC3)cc21 [I-55, 3-[3-methyl-2-oxo-5-(3-[2-[2-(2-[4-[(4-[7-[trans-4-hydroxycyclohexyl]-2-[(3,3,3-trifluoropropyl)amino]-7H-pyrrolo[2,3-d]pyrimidin-5-yl]phenyl)methyl]piperazin-1-yl]ethoxy)ethoxy]ethoxy]propyl)-2,3-dihydro-1H-1,3-benzodiazol-1-yl]piperidine-2,6-dione]
> 50	Cn1c(=O)n([C@H]2CCC(=O)NC2=O)c2ccc(CCCOCCOCCN3CCN(Cc4ccc(-c5cn([C@H]6CC[C@H](O)CC6)c6nc(NCCC(F)(F)F)ncc56)cc4)CC3)cc21 [I-56, 3-(3-methyl-2-oxo-5-[3-[2-(2-[4-[(4-[7-[trans-4-hydroxycyclohexy1]-2-[(3,3,3-trifluoropropyl)amino]-7H-pyrrolo[2,3-d]pyrimidin-5-yl]phenyl)methyl]piperazin-1-yl]ethoxy)ethoxy]propyl]-2,3-dihydro-1H-1,3-benzodiazol-1-yl)piperidine-2,6-dione]
> 50	CCCCNc1ncc2c(-c3ccc(CN4CCN(CCOCCOCCOCCOCCCc5ccc6c(c5)n(C)c(=O)n6[C@H]5CCC(=O)NC5=O)CC4)cc3)cn(C3CCCCC3)c2n1 [I-57, 3-(5-[1-[4-([4-[2-(butylamino)-7-cyclohexy1-7H-pyrrolo[2,3-d]pyrimidin-5-yl]phenyl]methyl)piperazin-1-yl]-3,6,9,12-tetraoxapentadecan-15-y1]-3-methyl-2-oxo-2,3-dihydro-1H-1,3-benzodiazol-1-y1)piperidine-2,6-dione]
> 50	CCCCNc1ncc2c(-c3ccc(CN4CCN(CCOCCOCCOCCOCCCc5ccc6c(c5)n(C)c(=O)n6[C@H]5CCC(=O)NC5=O)CC4)cc3F)cn([C@H]3CC[C@H](O)CC3)c2n1 [I-58, 3-(5-[1-[4-([4-[2-(butylamino)-7-[trans-4-hydroxycyclohexy1]-7H-pyrrolo[2,3-d]pyrimidin-5-y1]-3-fluorophenyl]methyl)piperazin-1-y1]-3,6,9,12-tetraoxapentadecan-15-y1]-3-methyl-2-oxo-2,3-dihydro-1H-1,3-benzodiazol-1-yl)piperidine-2,6-dione]
> 50	CCCCNc1ncc2c(-c3ccc(C(C)N4CCN(CCOCCOCCOCCOCCCc5ccc6c(c5)n(C)c(=O)n6C5CCC(=O)NC5=O)CC4)cc3)cn([C@H]3CC[C@H](O)CC3)c2n1 (stereo partly drawn) [I-59, 3-(5-[1-[4-(1-[4-[2-(butylamino)-7-[trans-4-hydroxycyclohexy1]-7H-pyrrolo[2,3-d]pyrimidin-5-yl]phenyl]ethyl)piperazin-1-yl]-3,6,9,12-tetraoxapentadecan-15-y1]-3-methyl-2-oxo-2,3-dihydro-1H-1,3-benzodiazol-1-yl)piperidine-2,6-dione]
< 20	CCCCNc1ncc2c(-c3ccc(S(=O)(=O)N4CCN(CCOCCOCCOCCOCCCc5ccc6c(c5)n(C)c(=O)n6[C@H]5CCC(=O)N(C)C5=O)CC4)cc3)cn([C@H]3CC[C@H](O)CC3)c2n1 [I-60, 3-[5-[1-(4-[4-[2-(butylamino)-7-[trans-4-hydroxycyclohexyl]-7H-pyrrolo[2,3-d]pyrimidin-5-yl]benzenesulfonyl]piperazin-1-yl)-3,6,9,12-tetraoxapentadecan-15-y1]-3-methyl-2-oxo-2,3-dihydro-1H-1,3-benzodiazol-1-yl]-1-methylpiperidine-2,6-dione; formic acid]
> 50	CCCCNc1ncc2c(-c3ccc(CN4CCN(CCOCCOCCOCCOCCNc5ccc6c(c5)n(C)c(=O)n6[C@H]5CCC(=O)NC5=O)CC4)cc3)cn([C@H]3CC[C@H](O)CC3)c2n1 [I-61, 3-(5-[15-[4-([4-[2-(butylamino)-7-[trans-4-hydroxycyclohexyl]-7H-pyrrolo[2,3-d]pyrimidin-5-yl]phenyl]methyl)piperazin-1-y1]-4,7,10,13-tetraoxa-1-azapentadecan-1-y1]-3-methyl-2-oxo-2,3-dihydro-1H-1,3-benzodiazol-1-y1)piperidine-2,6-dione; bis(formic acid)]

SMILES	Dmax [%]
CCCCNc1ncc2c(-c3ccc(CNCCCCOCCCCc4ccc5c(c4)n(C)c(=O)n5[C@H]4CCC(=O)NC4=O)cc3)cn([C@H]3CC[C@H](O)CC3)c2n1 [I-53, 3-[5-(4-[4-[([4-[2-(butylamino)-7-[trans-4-hydroxycyclohexyl]-7H-pyrrolo[2,3-d]pyrimidin-5-yl]phenyl]methyl)amino]butoxy]butyl)-3-methyl-2-oxo-2,3-dihydro-1H-1,3-benzodiazol-1-yl]piperidine-2,6-dione hydrochloride]	> 50
